Assay results reported in US12509452B2, “Substituted-isoxazoline-containing aromatic compound, preparation method therefor, herbicidal composition and use thereof” (QINGDAO KINGAGROOT CHEMICAL COMPOUND CO., LTD., priority 2019, dated 2025).

How the values were obtained:
Experiment in all cases: weeding effect in post-emergence stage
Type in all cases: in vivo
Conyza japonica = system: Conyza japonica
Text: (§1) The activity level criteria for plant damage (i.e., growth control rate) are as follows: • Level 5: growth control rate is above 85%; • Level 4: growth control rate is greater than or equal to 60% and less than 85%; • Level 3: growth control rate is greater than or equal to 40% and less than 60%; • Level 2: growth control rate is greater than or equal to 20% and less than 40%; • Level 1: growth control rate is greater than or equal to 5% and less than 20%; • Level 0: growth control rate is less than 5%.
(§2) The above growth control rates are fresh weight control rates.
(§3) Experiment on weeding effect in post-emergence stage:
(§4) Monocotyledonous and dicotyledonous weed seeds (Descurainia sophia, Capsella bursa-pastoris, Abutilon theophrasti, Galium aparine, Stellaria media, Lithospermum arvense, Rorippa indica, Alopecurus aequalis, Alopecurus japonicus, Beckmannia syzigachne, Sclerochloa dura, Conyza Canadensis, Phleum paniculatum, Veronica didyma Tenore, Bromus japonicus, Aegilops tauschii, Phalaris arundinacea, Amaranthus retroflexus, Chenopodium album, Commelina communis, Sonchus arvensis, Convolvulus arvensis, Cirsium setosum, Solanum nigrum, Acalypha australis, Digitaria sanguinalis, Echinochloa crusgalli, Setaria viridis, Setaria glauca, Leptochloa chinensis, Monochoria vaginalis, Sagittaria trifolia, Scirpus juncoides, Cyperus rotundus, Cyperus iria, Cyperus difformis, Fimbristylis, Portulaca oleracea, Xanthium sibiricum, Pharbitis nil, Conyza japonica, etc.) and major crop seeds (wheat, corn, rice, soybean, cotton, oilseed rape, millet, sorghum, potato, sesame, ricinus, etc.) were placed in plastic pots filled with soil, then covered with 0.5-2 cm of soil, allowed to grow in a good greenhouse environment. After 2 weeks of sowing, the test plants were treated in the 2-3 leaf stage. The tested compounds of the present invention were respectively dissolved in acetone, then added with Tween 80 and 1.5 liter/ha of emulsifiable concentrate of methyl oleate as synergist, diluted with a certain amount of water to obtain a solution with a certain concentration, and sprayed with a spray tower onto the plants. After the application, the plants were cultured for 3 weeks in the greenhouse, and then the experimental results of the weeding were counted. The doses of the used compounds were 500, 250, 125, 60, 15, 7.5 g a.i./ha, and the averages were obtained by repeating for three times.

Rorippa indica = system: Rorippa indica
Text: as §1, §2, §3, §4

Alopecurus japonicus = system: Alopecurus japonicus
Text: as §1, §2, §3, §4

Beckmannia syzigachne = system: Beckmannia syzigachne
Text: as §1, §2, §3, §4

Row | SMILES | weeding effect in post-emergence stage, Conyza japonica (activity level) (Conyza japonica; dose 125 g a.i./ha) | weeding effect in post-emergence stage, Rorippa indica (activity level) (Rorippa indica; dose 125 g a.i./ha) | weeding effect in post-emergence stage, Alopecurus japonicus (activity level) (Alopecurus japonicus; dose 125 g a.i./ha) | weeding effect in post-emergence stage, Beckmannia syzigachne (activity level) (Beckmannia syzigachne; dose 125 g a.i./ha) | weeding effect in post-emergence stage, Conyza japonica (activity level) (Conyza japonica; dose 15 g a.i./ha) | weeding effect in post-emergence stage, Rorippa indica (activity level) (Rorippa indica; dose 15 g a.i./ha) | weeding effect in post-emergence stage, Alopecurus japonicus (activity level) (Alopecurus japonicus; dose 15 g a.i./ha) | weeding effect in post-emergence stage, Beckmannia syzigachne (activity level) (Beckmannia syzigachne; dose 15 g a.i./ha)
1 | CCOC(=O)C1(CC)CC(c2cc(-n3c(=S)cc(C(F)(F)F)n(C)c3=S)c(F)cc2Cl)=NO1 (racemic) [Compound 230] | 5 (Level 5: growth control rate is above 85%) | 5 (Level 5: growth control rate is above 85%) | 5 (Level 5: growth control rate is above 85%) | 5 (Level 5: growth control rate is above 85%) | – | – | – | –
2 | CCOC(=O)[C@@]1(COC=O)CC(c2cc(-n3c(=O)cc(C(F)(F)F)n(C)c3=O)c(F)cc2Cl)=NO1 [218(S)] | – | – | – | – | 5 (Level 5: growth control rate is above 85%) | 5 (Level 5: growth control rate is above 85%) | 5 (Level 5: growth control rate is above 85%) | 5 (Level 5: growth control rate is above 85%)
3 | CCOC(=O)C1(CF)CC(c2cc(-n3c(=O)cc(C(F)(F)F)n(C)c3=O)c(F)cc2Cl)=NO1 (racemic) [Compound 132] | 5 (Level 5: growth control rate is above 85%) | 5 (Level 5: growth control rate is above 85%) | 5 (Level 5: growth control rate is above 85%) | 5 (Level 5: growth control rate is above 85%) | – | – | – | –
4 | CCOC(=O)[C@]1(CC)CC(c2cc(-n3c(=O)cc(C(F)(F)F)n(C)c3=O)c(F)cc2Cl)=NO1 [105(S)] | 5 (Level 5: growth control rate is above 85%) | 5 (Level 5: growth control rate is above 85%) | 5 (Level 5: growth control rate is above 85%) | 5 (Level 5: growth control rate is above 85%) | – | – | – | –
5 | CCOC(=O)C1(CC)CC(c2cc(-n3c(=O)n(C)c(=S)n(C)c3=O)c(F)cc2Cl)=NO1 (racemic) [Compound 3] | 5 (Level 5: growth control rate is above 85%) | 5 (Level 5: growth control rate is above 85%) | 5 (Level 5: growth control rate is above 85%) | 5 (Level 5: growth control rate is above 85%) | 5 (Level 5: growth control rate is above 85%) | 5 (Level 5: growth control rate is above 85%) | 5 (Level 5: growth control rate is above 85%) | 5 (Level 5: growth control rate is above 85%)
6 | CCOC(=O)C1(C)CC(c2cc(-n3c(=O)n(C)c(=S)n(C)c3=O)c(Cl)cc2Cl)=NO1 (centres unmarked) [Compound 1-61] | – | – | – | – | 5 (Level 5: growth control rate is above 85%) | 5 (Level 5: growth control rate is above 85%) | 5 (Level 5: growth control rate is above 85%) | 5 (Level 5: growth control rate is above 85%)
7 | CCOC(=O)C1(C)CC(c2cc(-n3c(=O)cc(C(F)(F)F)n(C)c3=O)c(F)cc2Cl)=NO1 (centres unmarked) [Compound 1-9] | – | – | – | – | 5 (Level 5: growth control rate is above 85%) | 5 (Level 5: growth control rate is above 85%) | 5 (Level 5: growth control rate is above 85%) | 5 (Level 5: growth control rate is above 85%)
